This is an account of results in patent US20230372492A1, “DRUGS CONJUGATED WITH HEXOSE PHOSPHATE AND METHODS OF MAKING AND USING SAME” (MISSISSIPPI STATE UNIVERSITY, priority 2020, published 2023).

≈ marks a conversion by molar mass, not a printed value. Where “and” joins values, the source holds several entries; their conditions need not be identical. Equal values may be shown once. Read-outs that look alike come from different tables or passages of the source. Bounds are passed on as bounds.

Data set [1] concerns bioluminescent E. coli strain. The data set is described as follows: Mouse urinary tract infection with bioluminescent E. coli. Format: in vivo, C57BL/6 mice. To be noted: 80 mg/kg intraperitoneal at 2, 24 and 48 hours; 72 hours after infection. As to the method: C57BL/6 mice were transurethrally inoculated with bioluminescent E. coli strain and treated with PBS, linezolid (80 mg/kg), and linezolid conjugated with 3FG6P (80 mg/kg) at 2, 24, and 48 hours after inoculation. 72 hours after inoculation, the progress of the infection was monitored using a IVIS Lumina XR small animal imaging system and the bacterial burden in the kidney and bladder was determined by a plate counting method.
To test the in vivo antimicrobial activity of linezolid and linezolid conjugated with 3FG6P, clinical E. coli strains were constructed that constitutively express a bioluminescent light signal using pLuxABCDE plasmid. See Karsi A. Lawrence M L. Broad host range fluorescence and bioluminescence expression vectors for Gram-negative bacteria. Plasmid. 2007; 57(3):286-95. Epub 2007/01/09. doi: 10.1016/j.plasmid.2006.11.002. PubMed PMID: 17207855 for real time monitoring of the progress of infections. Six- to eight-week old female C57BL/6 mice were purchased from Harlan laboratory and were housed and maintained according to the protocol approved by the institutional animal care and use committee at Mississippi State University. Animals (n=6/group) were transurethrally infected with 50 μl of bioluminescent E. coli strain suspended in PBS (2×10^9 CFU/ml). Animals were treated with an intraperitoneal injection of linezolid (80 mg/kg), linezolid conjugated with 3FG6P (80 mg/kg) or PBS control at 2, 24, and 48 hours after infection. The progress of the infection was monitored by measuring the bioluminescent light signal using an IVIS Lumina X R small animal imaging system. After 72 hours infection, animals were humanely euthanized and the bladder and kidney samples were collected, homogenized, and serially diluted, and the serial dilutions were plated on blood agar to determine the bacterial burden. A transurethral inoculation of E. coli established persistent infections in the kidney and bladder in the absence of antibiotic treatment (PBS control group). The mean bacterial counts in the kidney and bladder were log10 6.328±0.132 and log10 6.171+0.155 CFU/g, respectively (FIG. 12).

The test system of data set [2] is Gram positive and Gram-negative pathogens. The experiment in a line: Broth microdilution growth inhibition, summary over all tested pathogens. Format: cell-based. The protocol: To test the antimicrobial activity of linezolid and linezolid conjugated with 3FG6P (Lzd-3FG6P) against Gram-positive and Gram-negative pathogens, the pathogens Staphylococcus aureus ATCC 25923, Klebsiella pneumoniae ATCC 35657, Acinetobacter baumannii ATCC BAA1605, Escherichia coli ATCC 25922, Enterobacter cloacae ATCC 13047, Enterobacter aerogenes ATCC13048, and Salmonella typhimurium ATCC 14028 were used. The minimal inhibitory concentration (MIC) was determined using broth microdilution following the instructions of Clinical and Laboratory Standards Institute (CLSI) document M07-A9 (Clinical and Laboratory Standards Institute. 2012. M07-A9. Methods for dilution antimicrobial susceptibility tests for bacteria that grow aerobically: approved standard. 9th ed. Clinical and Laboratory Standards Institute, Wayne, PA). Briefly, these bacterial strains were grown in Muller Hinton broth (MHB) until exponential phage (OD600<1.0). The exponentially grown testing bacteria were diluted to an OD600 of 0.01 in MHB and aliquoted in a 96 well plate. […] The plate was incubated at 37° C. and the growth of bacteria was monitored by measuring OD600 using a Cytation 5 plate reader (BioTek).

Data set [3] relates to Staphylococcus aureus ATCC 25923. The data set is described as follows: MIC by broth microdilution (CLSI M07-A9). In kind it is cell-based. Conditions: Muller Hinton broth, 37° C. As to the method:
(§1) To test the antimicrobial activity of linezolid and linezolid conjugated with 3FG6P (Lzd-3FG6P) against Gram-positive and Gram-negative pathogens, the pathogens Staphylococcus aureus ATCC 25923, Klebsiella pneumoniae ATCC 35657, Acinetobacter baumannii ATCC BAA1605, Escherichia coli ATCC 25922, Enterobacter cloacae ATCC 13047, Enterobacter aerogenes ATCC13048, and Salmonella typhimurium ATCC 14028 were used. The minimal inhibitory concentration (MIC) was determined using broth microdilution following the instructions of Clinical and Laboratory Standards Institute (CLSI) document M07-A9 (Clinical and Laboratory Standards Institute. 2012. M07-A9. Methods for dilution antimicrobial susceptibility tests for bacteria that grow aerobically: approved standard. 9th ed. Clinical and Laboratory Standards Institute, Wayne, PA). Briefly, these bacterial strains were grown in Muller Hinton broth (MHB) until exponential phage (OD600<1.0). The exponentially grown testing bacteria were diluted to an OD600 of 0.01 in MHB and aliquoted in a 96 well plate. Stocks of linezolid (Lzd) and linezolid conjugated with 3FG6P (Lzd-3FG6P) were prepared at 10 mg/ml in DMSO which was diluted by two-fold serial dilutions from 64 μg/ml to 2 μg/ml (final concentration) and added to the 96 well plate. A DMSO control (0 μg/ml in the figures) was included. The plate was incubated at 37° C. and the growth of bacteria was monitored by measuring OD600 using a Cytation 5 plate reader (BioTek).
On the technique in general: Broth dilution looks for growth in wells or tubes with falling amounts of substance.

The test system of data set [4] is Salmonella typhimurium ATCC 14028. The experiment in a line: MIC by broth microdilution (CLSI M07-A9). To be noted: Muller Hinton broth, 37° C. In kind it is cell-based. As to the method: as §1
In data set [5] the test system is Enterobacter aerogenes ATCC13048. The data set is described as follows: MIC by broth microdilution (CLSI M07-A9). Format: cell-based. To be noted: Muller Hinton broth, 37° C. The protocol:
as §1

Data set [6] concerns Acinetobacter baumannii ATCC BAA1605. The data set is described as follows: MIC by broth microdilution (CLSI M07-A9). In kind it is cell-based. To be noted: Muller Hinton broth, 37° C. As to the method: as §1
Data set [7] concerns Escherichia coli ATCC 25922. The experiment in a line: MIC by broth microdilution (CLSI M07-A9). Format: cell-based. To be noted: Muller Hinton broth, 37° C. As to the method: as §1
The test system of data set [8] is Klebsiella pneumoniae ATCC 35657. The experiment in a line: MIC by broth microdilution (CLSI M07-A9). Format: cell-based. To be noted: Muller Hinton broth, 37° C. The protocol: as §1
Data set [9] concerns Enterobacter cloacae ATCC 13047. The experiment in a line: MIC by broth microdilution (CLSI M07-A9). In kind it is cell-based. To be noted: Muller Hinton broth, 37° C. The protocol:
as §1

Data set [10] has as its system UhpT expression (HptARS system) in S. aureus LAC strain. The experiment in a line: uhpT promoter-LuxABCDE bioluminescent reporter for UhpT expression. In kind it is cell-based, Staphylococcus aureus. To be noted: 500 μM in brain heart infusion broth. As to the method:
FIG. 5 illustrates a LuxABCDE reporter system for monitoring expression of the UhpT by measuring bioluminescent light signals and strong and stable induction of UhpT expression by 3FG6P. S. aureus LAC strain harboring the LuxABCDE reporter system was cultured in a brain heart infusion broth supplemented with 500 μM glucose (Glc), glucose-6-phosphate (G6P), and 3-fluoro-glucose-6-phosphate (3FG6P) and the bioluminescent signal was monitored using a Cytation 5.
To test whether 3FG6P can induce expression of the UhpT, we generated a bioluminescent reporter plasmid in which the promoter region of the uhpT was fused to the promoterless LuxABCDE operon (FIG. 5). See Francis K P, Joh D, Bellinger-Kawahara C, Hawkinson M J, Purchio T F, Contag P R. Monitoring bioluminescent Staphylococcus aureus infections in living mice using a novel luxABCDE construct. Infection and immunity. 2000; 68(6):3594-600. Epub 2000/05/19. PubMed PMID: 10816517; PMCID: PMC97648 and Karsi A, Lawrence M L. Broad host range fluorescence and bioluminescence expression vectors for Gram-negative bacteria. Plasmid. 2007; 57(3):286-95. Epub 2007/01/09. doi: 10.1016/j.plasmid.2006.11.002. PubMed PMID: 17207855 for monitoring of the expression of UhpT by measuring bioluminescent light signals.

The subject of another data set is Escherichia coli. Conditions: cited from earlier work.
The test system of another data set is Pseudomonas aeruginosa. To be noted: cited from earlier work.
The subject of the next data set is Proteus penneri. To be noted: cited from earlier work.
Data set [11] deals with Stenotrophomonas maltophilia. Conditions: cited from earlier work.
In another data set the test system is Klebsiella pneumoniae. To be noted: cited from earlier work.
The test system of data set [12] is vancomycin-resistant Enterococcus (VRE)faecalis and faecium. To be noted: cited from earlier work.
For another data set, the system named is Acinetobacter spp. To be noted: cited from earlier work.
Data set [13] relates to methicillin-resistant Staphylococcus aureus (MRSA). Conditions: cited from earlier work.
Data set [14] has as its system Staphylococcus epidermidis (MRSE). To be noted: cited from earlier work.
The test system of the next data set is Neisseria gonorrhea. Conditions: cited from earlier work.
Another data set has as its system Enterobacteriaceae. To be noted: cited from earlier work.
The test system of a further data set is S. aureus COL strain. The data set is described as follows: Growth in BHI broth with fosfomycin, with or without 4FG6P. Format: cell-based, Staphylococcus aureus. The source says: (§2) FIGS. 13A to 13D show a comparison of the antimicrobial activity of fosfomycin alone (FIG. 13A) and fosfomycin conjugated with 3FG6P or 4FG6P (FIG. 13B) against a fosfomycin resistant E. coli clinical isolate, and fosfomycin alone (FIG. 13C) and fosfomycin conjugated with 3FG6P or 4FG6P (FIG. 13D) against an S. aureus COL strain. The key in FIG. 13D applies to all graphs of FIGS. 13A-13D.
(§3) To test whether 3FG6P and 4FG6P can potentiate the efficacy of fosfomycin, clinical fosfomycin resistant UTI E. coli isolates harboring the fosA gene and S. aureus COL strain were obtained. Overnight cultures of these bacteria were grown in brain heart infusion (BHI) broth diluted to 0.5 McFarland turbidity and inoculated into fresh BHI broth supplemented with various concentrations of fosfomycin alone or fosfomycin supplemented with 3FG6P for E. coli or 4FG6P for S. aureus (50 μM).

The conditions of data set [15]: cited from earlier work.
In data set [16] the test system is fosfomycin resistant UTI E. coli isolates harboring the fosA gene. The experiment in a line: Growth in BHI broth with fosfomycin, with or without 3FG6P. In kind it is cell-based, Escherichia coli.
Description: as §2, §3

Setting [17] is: BHI supplemented with 50 μM of 4FG6P.

With `CC(=O)NC[C@H]1CN(c2ccc(N3CCN(C(=O)CCCOC4OC(COP(=O)(O)O)[C@@H](O)C(F)C4O)CC3)c(F)c2)C(=O)O1` (stereo partly shown) [Linezolid-3FG6P], the “bacterial counts in the bladder” value in data set [1] is listed as “nearly completely cleared the infection”. Further, the “bacterial counts in the kidney” value in data set [1] is “completely cleared the infection”. In addition, the “concentration range inhibiting growth” value in [2] (both Gram positive and Gram-negative pathogens) is 2 to 8 µg/mL. The minimal inhibitory concentration (MIC) in [3] (Staphylococcus aureus, ATCC25923, read-out: MIC) is under 2 µg/mL; in [4] (Salmonella enterica, read-out: MIC), 8 µg/mL (≈ 12 µM); in data set [5] (Klebsiella aerogenes, ATCC13048, read-out: MIC), 4 µg/mL (≈ 6 µM); in data set [6] (Acinetobacter baumannii, ATCCBAA1605, read-out: MIC), under 2 µg/mL; in [7] (Escherichia coli, ATCC25922, read-out: MIC) it was 4 µg/mL (≈ 6 µM); in data set [8] (Klebsiella pneumoniae, ATCC35657, read-out: MIC), under 2 µg/mL. Also, the MIC in data set [9] (Enterobacter cloacae, ATCC13047, read-out: MIC) is under 2 µg/mL.

Consider `O=C[C@H](O)[C@@H](O)[C@H](O)[C@H](O)COP(=O)(O)O` [glucose-6-phosphate], for which the “duration of induced bioluminescent light signals” value in data set [10] amounted to 8 h.

Take “(S)—N-[[3-[3-fluoro-4-(N-1-piperazinyl)phenyl]-2-oxo-5-oxazolidinyl]methyl]acetamide [Linezolid]”: the antimicrobial activity result (in the data set with Escherichia coli; with Pseudomonas aeruginosa; in the data set with Proteus penneri; in [11]; in the data set on Klebsiella pneumoniae; with Acinetobacter spp) was “not active” in each case. The “bacterial counts in the bladder” value in data set [1] is listed as “did not reduce bacterial counts”. For the same molecule, the “bacterial counts in the kidney” value in data set [1] was “did not reduce bacterial counts”. For the same molecule, the MIC90 was 1 to 4 µg/mL and 2 µg/mL in [12]; 1 to 4 µg/mL and 2 µg/mL in data set [13]; 1 to 4 µg/mL and 1 µg/mL in [14]; 16 µg/mL in the data set with Neisseria gonorrhea. For the same molecule, the “concentration failing to inhibit growth” value in data set [2] (Gram-negative pathogens) worked out at 64 µg/mL. For the same molecule, the minimum inhibitory concentration (MIC) in data set [3] was under 2 µg/mL; in [3] (listed as linezolid), “less than 2 μg/ml”; in data set [4] it was over 64 µg/mL; in data set [5], over 64 µg/mL; in data set [6], over 64 µg/mL; in [7] it was over 64 µg/mL. In addition, the MIC in [8] and in data set [9] was over 64 µg/mL each time.

For the molecule `C[C@@H]1O[C@@H]1P(=O)(O)O` [fosfomycin], in the data set with Enterobacteriaceae, the “minimum inhibitory concentration (MIC) breakpoint” value is 8 to 32 µg/mL. For the same molecule, the “fosfomycin concentration at which growth was completely inhibited” value is 32 µg/mL in the data set with S. aureus COL strain (setting [17]) and at most 2 µg/mL in [16] (BHI supplemented with 50 μM of 3FG6P). The “growth at fosfomycin concentrations lower than 32 μg/ml” value in the data set on S. aureus COL strain (setting [17]) is reported as “significantly delayed”. Further, the “fosfomycin concentration up to which growth was allowed” value in the data set on S. aureus COL strain (BHI, fosfomycin alone) was “up to 128 μg/ml”; in data set [16] (BHI, fosfomycin alone) it was “up to 128 μg/ml”. In data set [15] (in vivo), the “metabolism in the liver” value is given as “not metabolized in the liver”. Further, the oral bioavailability in data set [15] (oral administration) is 30-37%.

Broadly, the MIC is the lowest concentration that inhibits growth of the organism. For orientation: MIC90 means an inhibitory concentration at the 90% level, which refers to growth in some studies and to a panel of isolates in others.
